Measured values taken from patent US6955873B1, “Diagnosis and treatment system for reward deficiency syndrome (RDS) and related behaviors” (priority 1999, dated 2005).
Read-outs that look alike come from different tables or passages of the source.

Experiments:
[1] = tested on: obese subjects genotyped for the dopamine D2 receptor gene (DRD2); assay: Chromium picolinate body composition response as a function of DRD2 Taq1 A1 genotype; assay type: in vivo, human
From the text: In order to resolve the issue of non-responders, the inventor decided to test the hypothesis that typing the obese patients by genotyping the DRD2 gene prior to treatment with CrP would result in a differential treatment outcome. […] One of us (KB) predicted carriers of the DRD2 A2 allele would retain the positive metabolic effects of P, but in contrast the DRD2 A1 carriers, because there is a proclivity to increased carbohydrate binging, would possibly mask the metabolic effects of CrP on weight loss and change in body fat attenuating any positive effects. One prophetic example as described earlier (see page 48):
The inventor genotyped 130 obese subjects for the dopamine D2 receptor gene (DRD2) utilizing standard PCR techniques. The subjects were assessed for scale weight and for percent body fat using dual energy X-ray absorptiometry (DEXAR). The subjects were divided into matched placebo and chromium picolinate (CrP) groups (400μg. per day). The sample was separated into two independent groups; those with either an A1/A1 or A1/A2 allele and those with only the A2/A2 allelic pattern. Each of these groups was tested separately for differences between placebo and treatment means for a variety of measures of weight change. These measures consisted of calculations of the percent of fat weight change; the change in fat weight; the change in body weight; the change in free mass, the percent change of fat weight; the body composition index; and the body weight change in kilograms.

[2] = tested on: patients following weight reduction; conditions: after six months; cited from earlier work
over-eating patients [3] = conditions: 200 and 400 mcg, compared with placebo; cited from earlier work
over-eating patients [4] = conditions: 400 mcg vs placebo, cited from earlier work
[5] = tested on: obese subjects genotyped for the dopamine D2 receptor gene (DRD2); conditions: 400 mcg of CrP/day, cited from earlier work
young obese women = conditions: cited from earlier work

Chromium Picolinate
body weight change in kilograms, treatment vs placebo ([1]; A2/A2, p<0.012): significant
change in fat weight, treatment vs placebo ([1]; A2/A2, p<0.041): significant
percent change in weight, treatment vs placebo ([1]; A2/A2, p<0.044): significant
responsiveness to the effects of CrP ([1]; DRD2 A2 allele carriers versus DRD2 A1 allele carriers, 400 ug per day): more responsive
any parameter of weight change, treatment vs placebo ([1]; subjects possessing a DRD2 A1 allele): no significance
non-fat related weight loss [2]: lean body mass and avoided non-fat related weight
changes in Body Mass composition indicies (over-eating patients [3]): 200 and 400 mcg of CrP brought about significant
reduction in body fat (over-eating patients [4]; p < 0.001): greater reduction in body fat (p < 0.001), significantly
weight lost (over-eating patients [4]; p < 0.001): group, 400 mcg CrP group lost significantly more
body composition (over-eating patients [4]; p < 0.004): improve body composition (p < 0.004).
body fat lost (over-eating patients [4]; p < 0.004): group, 400 mcg CrP group lost significantly more
changes in fat weight, body weight, percent change in weight, body weight changes in kgms ([5]; A1/A2 and A1/A1 carriers, listed as CrP): non-
changes in fat weight, body weight, percent change in weight, body weight changes in kgms ([5]; A2/A2 group): changes in kgms were all significant in A2/A2 group,
weight gain (young obese women; CrP supplementation alone, 43 pts, 63 days): CrP supplementation resulted in significant weight
weight loss (young obese women; exercise training combined with CrP supplementation): supplementation resulted in significant weight loss
